According to ChEMBL document CHEMBL4184119, “Identification of 2-thioxoimidazolidin-4-one derivatives as novel noncovalent proteasome and immunoproteasome inhibitors” (Bioorg Med Chem Lett, 2018):
Calls of active or inactive are those of the source. The rule behind the calls is not given here.

What was measured:
[1] = target: T1, Proteasome component C5 (Homo sapiens) (UniProt P20618); experiment: Inhibition of 20s constitutive proteasome beta1 caspase-like activity in human erythrocytes using Z-Leu-Leu-Glu-AMC as substrate at 50 uM after 10 mins by fluorescence assay relative to control; assay type: cell-based
T1 sequence (whole entry): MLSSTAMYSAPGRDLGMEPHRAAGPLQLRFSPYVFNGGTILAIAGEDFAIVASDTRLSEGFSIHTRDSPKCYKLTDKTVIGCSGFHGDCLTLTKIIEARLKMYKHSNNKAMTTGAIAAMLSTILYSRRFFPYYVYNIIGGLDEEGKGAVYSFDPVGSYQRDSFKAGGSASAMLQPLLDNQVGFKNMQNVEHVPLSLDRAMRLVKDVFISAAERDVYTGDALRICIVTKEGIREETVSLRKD

[2] = target: Proteasome Macropain subunit (Homo sapiens) (UniProt P49721); experiment: Inhibition of 20s constitutive proteasome beta2 trypsin-like activity in human erythrocytes using Boc-Leu-Arg-Arg-AMC as substrate at 50 uM after 10 mins by fluorescence assay relative to control; assay type: cell-based
Sequence of Proteasome Macropain subunit (Homo sapiens) (P49721 whole entry): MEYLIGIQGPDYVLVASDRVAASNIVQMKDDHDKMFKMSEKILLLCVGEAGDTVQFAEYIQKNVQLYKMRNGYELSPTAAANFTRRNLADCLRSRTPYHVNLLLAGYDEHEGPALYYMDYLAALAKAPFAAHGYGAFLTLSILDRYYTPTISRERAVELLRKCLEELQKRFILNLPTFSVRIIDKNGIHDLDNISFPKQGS

[3] = target: Proteasome Macropain subunit (Homo sapiens) (UniProt P49721); experiment: Inhibition of 20s immunoproteasome beta2 trypsin-like activity in human spleen using Boc-Leu-Arg-Arg-AMC as substrate at 50 uM after 10 mins by fluorescence assay relative to control
[4] = target: T2, Proteasome Macropain subunit MB1 (Homo sapiens) (UniProt P28074); experiment: Inhibition of 20s constitutive proteasome beta5 chymotrypsin-like activity in human erythrocytes using Suc-Leu-Leu-Val-Tyr-AMC as substrate at 50 uM after 10 mins by fluorescence assay relative to control; assay type: cell-based
T2 sequence (whole entry): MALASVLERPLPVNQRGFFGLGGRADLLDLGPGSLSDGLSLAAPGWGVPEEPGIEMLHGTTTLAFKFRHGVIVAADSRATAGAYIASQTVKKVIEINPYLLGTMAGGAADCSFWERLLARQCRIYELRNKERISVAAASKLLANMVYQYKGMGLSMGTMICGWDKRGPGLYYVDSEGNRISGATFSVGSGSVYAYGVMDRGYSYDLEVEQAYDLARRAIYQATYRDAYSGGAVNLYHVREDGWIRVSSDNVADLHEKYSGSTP

[5] = target: T2, Proteasome Macropain subunit MB1 (Homo sapiens); experiment: Inhibition of 20s immunoproteasome beta5 chymotrypsin-like activity in human spleen using Suc-Leu-Leu-Val-Tyr-AMC as substrate at 50 uM after 10 mins by fluorescence assay relative to control
[6] = Growth inhibition of human MM1R cells after 24 hrs by MTT assay; assay type: functional; conditions: MM.1R
[7] = target: T2, Proteasome Macropain subunit MB1 (Homo sapiens); experiment: Selectivity ratio of inhibitory concentration for 20s constitutive proteasome beta5 chymotrypsin-like activity in human erythrocytes to Ki for 20s immunoproteasome beta5 chymotrypsin-like activity in human spleen; assay type: cell-based
[8] = target: T3, Proteasome Macropain subunit MB1 (Homo sapiens, UniProt P28074); experiment: Inhibition of 20s constitutive proteasome beta5 chymotrypsin-like activity in human erythrocytes using Suc-Leu-Leu-Val-Tyr-AMC as substrate after 10 mins by fluorescence assay
T3 sequence (P28074 whole entry): T2 sequence (whole entry)

[9] = target: T2, Proteasome Macropain subunit MB1 (Homo sapiens); experiment: Reversible inhibition of 20s constitutive proteasome beta5 chymotrypsin-like activity in human erythrocytes using Suc-Leu-Leu-Val-Tyr-AMC as substrate at 50 uM preincubated for 30 mins followed by compound dilution measured after 30 mins by fluorescence assay; assay type: cell-based

| SMILES | inhibition [1] | inhibition [2] | inhibition [3] | inhibition [4] | inhibition [5] | IC50 [6] | Ratio [7] | Ki [8] | inhibition [9] |
| --- | --- | --- | --- | --- | --- | --- | --- | --- | --- |
| O=C1/C(=C/c2ccc(Oc3ccccc3)cc2)NC(=S)N1c1ccccc1 | inactive | 5% | 53% | 13% | 58% | – | – | – | – |
| CSc1ccc(/C=C2\NC(=S)N(c3ccccc3)C2=O)cc1 | 59% | – | – | 28% | 50% | – | – | – | – |
| O=C1CNC(=S)N1c1cccc2ccccc12 | 47% | 38% | inactive | inactive | inactive | – | – | – | – |
| CC(C)CC(NC(=O)[C@H](CC(C)C)NC(=O)OCc1ccccc1)C(=O)N[C@H](C=O)CC(C)C (single isomer, unassigned) [MG-132] | – | – | – | – | – | 14.4 µM | – | – | – |
| COc1ccc(/C=C2\NC(=S)N(c3ccccc3)C2=O)cc1O | 28% | 37% | 45% | 45% | – | 40.7 µM | 20 | – | – |
| COc1cc(/C=C2\NC(=S)N(c3ccccc3)C2=O)ccc1O | 54% | 32% | – | – | – | 20.2 µM | – | 23.6 µM | – |
| O=C1/C(=C/c2cccc(Oc3ccccc3)c2)NC(=S)N1c1ccccc1 | inactive | inactive | 32% | 39% | 56% | – | – | – | – |
| COc1ccc(/C=C2\NC(=S)N(c3ccccc3)C2=O)cc1 | 56% | 35% | 29% | 45% | – | 19.4 µM | – | – | – |
| O=C1/C(=C/c2ccc(Oc3ccccc3)cc2)NC(=S)N1c1cccc2ccccc12 | – | 57% | – | 20% | 56% | – | – | – | – |
| COc1ccc(/C=C2\NC(=S)N(c3ccccc3)C2=O)cc1OC | 58% | 29% | 50% | – | – | 36.7 µM | 7 | 13.6 µM | Active |
| COc1cccc(/C=C2\NC(=S)N(c3ccccc3)C2=O)c1 | 52% | 36% | 18% | – | – | 25.9 µM | – | 17.9 µM | – |
| O=C1CNC(=S)N1c1ccccc1 | 32% | inactive | inactive | 47% | 53% | – | – | – | – |
